Entries after “also recorded” stand apart in the source; their conditions may differ.
How the values were obtained:
EphB4 = target: T1, EphB4 (Homo sapiens, UniProt P54760); assay: Eph receptor kinase activity assay (radiometric), EphB4; format: biochemical; conditions: for remaining activity at 0.01 µM: 10 nM compound, read-out: EphB4 % act 10 nM; for remaining activity at 0.1 µM: 100 nM compound, read-out: EphB4 % act 100 nM
T1 sequence (P54760 16-987): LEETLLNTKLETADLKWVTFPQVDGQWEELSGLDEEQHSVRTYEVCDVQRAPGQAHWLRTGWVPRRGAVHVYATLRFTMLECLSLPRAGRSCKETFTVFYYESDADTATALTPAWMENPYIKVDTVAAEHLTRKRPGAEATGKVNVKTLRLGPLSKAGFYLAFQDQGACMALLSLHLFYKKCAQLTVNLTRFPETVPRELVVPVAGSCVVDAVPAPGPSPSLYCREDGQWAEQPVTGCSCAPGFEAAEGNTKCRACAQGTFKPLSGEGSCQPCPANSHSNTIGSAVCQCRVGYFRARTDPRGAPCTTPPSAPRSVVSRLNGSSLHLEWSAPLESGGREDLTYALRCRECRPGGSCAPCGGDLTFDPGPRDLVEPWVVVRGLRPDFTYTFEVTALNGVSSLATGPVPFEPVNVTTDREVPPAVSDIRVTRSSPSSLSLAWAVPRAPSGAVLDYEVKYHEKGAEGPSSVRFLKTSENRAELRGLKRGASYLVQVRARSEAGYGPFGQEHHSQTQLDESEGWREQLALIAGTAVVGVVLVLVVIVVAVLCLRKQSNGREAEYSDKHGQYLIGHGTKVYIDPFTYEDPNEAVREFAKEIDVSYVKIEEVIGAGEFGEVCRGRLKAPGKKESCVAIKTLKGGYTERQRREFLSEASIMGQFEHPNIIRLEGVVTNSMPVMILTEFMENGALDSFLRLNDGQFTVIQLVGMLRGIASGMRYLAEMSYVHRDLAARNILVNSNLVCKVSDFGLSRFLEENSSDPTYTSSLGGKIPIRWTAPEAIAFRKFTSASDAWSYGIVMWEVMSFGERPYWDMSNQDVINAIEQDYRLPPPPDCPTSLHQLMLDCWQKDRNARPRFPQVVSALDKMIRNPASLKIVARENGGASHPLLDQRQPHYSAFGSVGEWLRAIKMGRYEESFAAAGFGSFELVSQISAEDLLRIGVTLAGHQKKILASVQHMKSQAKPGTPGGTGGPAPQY

EphB3 = target: T2, EphB3 (Homo sapiens, UniProt P54753); assay: EphB3 radiometric kinase activity assay (33P ATP filter binding); format: biochemical; conditions: for remaining activity at 0.01 µM: 10 nM compound, read-out: EphB3 % act 10 nM; for remaining activity at 0.1 µM: 100 nM compound, read-out: EphB3 % act 100 nM
T2 sequence (P54753 34-998): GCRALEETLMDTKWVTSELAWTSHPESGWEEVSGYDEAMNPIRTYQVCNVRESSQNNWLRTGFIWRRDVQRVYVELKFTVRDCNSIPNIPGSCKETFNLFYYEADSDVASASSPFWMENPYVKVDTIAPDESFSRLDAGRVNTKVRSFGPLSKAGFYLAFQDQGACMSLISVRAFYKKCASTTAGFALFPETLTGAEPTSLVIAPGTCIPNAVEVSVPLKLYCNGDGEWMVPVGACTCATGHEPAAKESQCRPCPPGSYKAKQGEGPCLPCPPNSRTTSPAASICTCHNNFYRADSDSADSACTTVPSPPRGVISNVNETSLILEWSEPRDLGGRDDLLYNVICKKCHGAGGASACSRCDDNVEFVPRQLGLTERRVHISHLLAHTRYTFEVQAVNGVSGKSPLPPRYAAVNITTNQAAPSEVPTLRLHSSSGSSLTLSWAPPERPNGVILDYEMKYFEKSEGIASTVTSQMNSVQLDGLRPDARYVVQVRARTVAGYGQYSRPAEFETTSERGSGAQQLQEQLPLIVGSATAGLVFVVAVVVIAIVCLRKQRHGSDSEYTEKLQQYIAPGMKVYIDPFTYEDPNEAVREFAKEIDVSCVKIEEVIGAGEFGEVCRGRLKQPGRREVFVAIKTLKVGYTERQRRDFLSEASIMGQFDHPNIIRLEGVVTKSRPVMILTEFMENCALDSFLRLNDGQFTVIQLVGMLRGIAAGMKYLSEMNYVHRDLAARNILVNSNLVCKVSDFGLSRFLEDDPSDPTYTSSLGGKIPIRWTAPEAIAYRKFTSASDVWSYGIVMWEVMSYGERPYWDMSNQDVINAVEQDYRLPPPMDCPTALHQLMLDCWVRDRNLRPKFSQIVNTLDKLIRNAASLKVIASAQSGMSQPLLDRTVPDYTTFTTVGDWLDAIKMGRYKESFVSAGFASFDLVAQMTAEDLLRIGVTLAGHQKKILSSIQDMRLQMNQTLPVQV
Experimental: EphB3 radiometric kinase activity assay. To study the EphB3 kinase activity, a radioactive filter binding assay using 33P ATP was performed as described at the […] International Centre for Kinase profiling. […] The mix was harvested onto P81 filter plates and counts were read on a Topcount NXT.

EphA4 = EphA4 (Homo sapiens, UniProt P54764); assay: Eph receptor kinase activity assay (radiometric), EphA4; format: biochemical
Aqueous solubility = format: physicochemical; conditions: aqueous medium at pH 7.4 (buffer not specified), pH 7.4, aqueous buffer; read-out: aqueous solubility
[1] = MTT and ATP-viability assays; format: cell-based; conditions: 30 μM
splenic CD11b+ monocytes = assay: Monocyte migration assay with astrocyte-conditioned medium; format: cell-based, mouse; conditions: ACM from astrocytes pre-treated with compound
Experimental: (§1) Generation of astrocyte-conditioned medium (ACM). […] After 24 h, cells were extensively washed with 1×PBS, and incubated with fresh astrocyte complete medium for 48 h. Supernatants were spun down and kept at −80° C. until tested in migration and neurotoxicity assays.
Monocyte Migration Assay. Monocytes were purified from spleens from C57BL/6J mice using CD11b Microbeads (#130-049-601, Miltenyi) following the manufacturer's instructions. 100,000 monocytes were seeded in the upper chamber of a 24-well cell culture transwell, with a 5 μm pore size (#3421, Thermo Fisher Scientific), containing 300 μL of astrocyte-conditioned medium (as detailed earlier) in the bottom chamber. After 3 h incubation at 37° C. in 5% CO2, cells were collected from the lower chamber after shaking and accutase solution incubation (#A6964, Sigma-Aldrich) and quantified by FACS.

N2A neuronal cells = assay: Neurotoxicity assay of astrocyte-conditioned medium (LDH release); format: cell-based, mouse; conditions: ACM from astrocytes pre-treated with compound, LDH release after 24 h
Experimental: as §1
Neurotoxicity Assay. N2A neuronal cells (#CCL-131, ATCC) were plated and pre-activated with 100 ng/mL mouse IFNγ (#485-MI-100; R&D Systems) for 24 h.
Thereafter, after extensive washing with 1×PBS, medium was replaced with ACM and after 24 h the supernatant was harvested for cytotoxicity evaluation by measuring LDH release with CytoTox 96 nonradioactive cytotoxicity assay kit (#G1780, Promega) following the manufacturer's protocol.

astrocytes = assay: Mitochondrial ROS measurement (MitoSOX) in astrocytes; format: cell-based, mouse; conditions: Rotenone and Antimycin A given together
Experimental: Mitochondrial ROS measurement. 50,000 astrocytes were seeded per well in 96-well black plates and rested for 2 days in complete medium, followed by activation or inhibitor pretreatment for 24 h. MitoSOX red (Thermo Fisher Scientific, #M36008) was used to stain for mitochondrial ROS for 10 min following the manual and the signal was detected on Infinite M1000 PRO Microplate Reader (Tecan). The fluorescent signal was normalized to cell number estimated using CyQUANT cell proliferation assay kit (Invitrogen, #C7026) first and then compared to control group for data analysis.

[2] = system: PI3K/AKT/mTOR signaling in astrocytes; assay: Western blot of PI3K/AKT/mTOR/NF-κB signaling in primary murine astrocytes; format: cell-based, mouse; conditions: astrocytes activated 30 minutes with TNFα and IL-1β
Experimental: Mouse primary astrocyte cultures. […] The cell suspension was then cultured at 37° C. in humidified 5% CO2 on poly-L-Lysine (#P4707, Sigma-Aldrich) pre-coated cell culture flasks. Medium was replaced every 3-5 days. The cells reached confluence after 7-10 days. Microglia were separated by shaking the glia culture at 225 rpm at 37° C. for at least 3 h and washing extensively with 1×PBS. Astrocytes were detached by mild trypsinization with Trypsin-EDTA (0.05%) at 37° C. and plated. […] Both cell types were then cultured separately for downstream procedures. […] Finally, microglia and astrocytes of each condition where magnetically separated as before and lysed for downstream gene expression analysis.
SDS-PAGE and Western blot. […] Membranes were blocked in 10% skimmed milk (#M0841, Lab Scientific) in TBS-T (#IBB-180-2L, Boston BioProducts). Primary antibodies were incubated ON at 4° C. and secondary 30 minutes at RT.
HRP-conjugated blots were developed using the KwikQuant imaging system and KwikQuant western blot detection kit (#R1004 Kindle Biosciences).

EphA2 = EphA2 (Homo sapiens, UniProt P29317); assay: Eph receptor kinase activity assay (radiometric), EphA2; format: biochemical
EphA2, sequence (P29317 24-976): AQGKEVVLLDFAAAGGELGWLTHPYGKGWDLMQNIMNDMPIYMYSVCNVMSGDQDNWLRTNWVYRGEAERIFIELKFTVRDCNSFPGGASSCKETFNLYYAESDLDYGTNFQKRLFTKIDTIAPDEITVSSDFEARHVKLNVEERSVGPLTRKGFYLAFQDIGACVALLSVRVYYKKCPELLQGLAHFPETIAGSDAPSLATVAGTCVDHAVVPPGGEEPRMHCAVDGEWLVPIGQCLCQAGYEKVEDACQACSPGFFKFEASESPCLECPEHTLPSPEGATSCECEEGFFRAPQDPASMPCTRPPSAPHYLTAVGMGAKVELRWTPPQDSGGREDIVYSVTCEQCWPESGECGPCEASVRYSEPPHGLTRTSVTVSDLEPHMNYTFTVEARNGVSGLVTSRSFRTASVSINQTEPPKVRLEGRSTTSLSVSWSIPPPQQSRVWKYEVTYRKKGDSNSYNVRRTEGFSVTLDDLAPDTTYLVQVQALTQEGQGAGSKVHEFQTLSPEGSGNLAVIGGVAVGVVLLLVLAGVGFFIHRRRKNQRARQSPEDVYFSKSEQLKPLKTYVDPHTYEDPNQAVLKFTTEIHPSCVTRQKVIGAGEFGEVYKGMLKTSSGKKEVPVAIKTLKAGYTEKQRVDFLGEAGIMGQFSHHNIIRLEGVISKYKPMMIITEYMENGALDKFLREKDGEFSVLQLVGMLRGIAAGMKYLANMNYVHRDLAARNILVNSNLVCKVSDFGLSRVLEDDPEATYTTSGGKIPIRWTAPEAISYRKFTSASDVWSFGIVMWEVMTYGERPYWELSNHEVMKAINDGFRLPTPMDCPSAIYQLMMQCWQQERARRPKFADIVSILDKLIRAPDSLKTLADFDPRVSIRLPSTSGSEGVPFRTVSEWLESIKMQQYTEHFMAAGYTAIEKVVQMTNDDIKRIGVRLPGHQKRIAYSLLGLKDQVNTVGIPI

EphA4, sequence (P54764 20-986): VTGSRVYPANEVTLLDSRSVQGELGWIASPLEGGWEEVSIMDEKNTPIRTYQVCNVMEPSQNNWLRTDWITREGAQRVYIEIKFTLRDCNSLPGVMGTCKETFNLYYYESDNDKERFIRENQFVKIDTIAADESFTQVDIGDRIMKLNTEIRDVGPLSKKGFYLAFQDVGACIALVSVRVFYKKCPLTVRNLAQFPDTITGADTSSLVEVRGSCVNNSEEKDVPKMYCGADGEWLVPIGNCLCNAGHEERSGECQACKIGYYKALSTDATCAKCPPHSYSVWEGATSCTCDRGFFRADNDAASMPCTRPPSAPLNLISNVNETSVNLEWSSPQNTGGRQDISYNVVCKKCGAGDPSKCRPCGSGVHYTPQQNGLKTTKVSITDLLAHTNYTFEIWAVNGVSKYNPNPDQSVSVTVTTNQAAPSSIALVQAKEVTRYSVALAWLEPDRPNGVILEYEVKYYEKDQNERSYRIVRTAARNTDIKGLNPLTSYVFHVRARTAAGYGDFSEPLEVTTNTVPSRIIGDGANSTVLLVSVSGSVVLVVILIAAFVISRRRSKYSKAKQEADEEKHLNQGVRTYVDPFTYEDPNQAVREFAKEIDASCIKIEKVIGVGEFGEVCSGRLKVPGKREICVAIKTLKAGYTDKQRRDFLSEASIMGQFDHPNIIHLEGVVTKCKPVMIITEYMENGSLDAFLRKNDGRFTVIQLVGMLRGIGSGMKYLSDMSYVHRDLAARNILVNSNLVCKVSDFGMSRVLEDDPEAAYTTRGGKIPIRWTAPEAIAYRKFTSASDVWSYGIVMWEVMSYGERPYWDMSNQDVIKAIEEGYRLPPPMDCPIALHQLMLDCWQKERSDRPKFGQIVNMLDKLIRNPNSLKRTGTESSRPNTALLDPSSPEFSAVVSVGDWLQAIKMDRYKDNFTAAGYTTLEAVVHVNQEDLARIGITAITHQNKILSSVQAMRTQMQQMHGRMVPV

Question: What does the source list for O=C(Nc1ccccc1Cl)c1cnc2ccc(C3CCNCC3)cn12 [A-38, N-(2-chlorophenyl)-6-(piperidin-4-yl)imidazo[1,2-a]pyridine-3-carboxamide]?
Answer: remaining activity at 0.01 µM (EphB4): 68%; remaining activity at 0.1 µM (EphB4): 9%; remaining activity at 0.3 µM (EphB4; 300 nM compound, read-out: EphB4 % act 300 nM): 3%; remaining activity at 0.01 µM (EphB3): 37%; remaining activity at 0.1 µM (EphB3): 14%; remaining activity at 0.3 µM (EphB3; 300 nM compound, read-out: EphB3 % act 300 nM): 7%; EphA4 % act 10 nM (EphA4; 10 nM compound): 32%; EphA4 % act 100 nM (EphA4; 100 nM compound): 14%; EphA4 % act 300 nM (EphA4; 300 nM compound): 9%; solubility (Aqueous solubility): > 10000 µg/mL; cytotoxicity in MTT and ATP-viability assays [1]: no cytotoxicity

Question: For O=C(CCl)Nc1ccc2c(Nc3cc(O)ccc3Cl)ncnc2c1 [C9], which ACM chemoattractant activity (splenic CD11b+ monocytes) is on record?
Answer: The ACM chemoattractant activity was “reduced ACM neurotoxic and chemoattractant activity”.

Question: What about the ACM neurotoxic activity (N2A neuronal cells) of the same compound?
Answer: Its ACM neurotoxic activity is “decrease in neurotoxicity; also recorded: reduced ACM neurotoxic”.

Question: Which “mitochondrial ROS levels” value (astrocytes) does the source give for C=C(C)[C@H]1Cc2c(ccc3c2O[C@@H]2COc4cc(OC)c(OC)cc4[C@@H]2C3=O)O1 [Rotenone, reference compound] here?
Answer: The value was “increases mitochondrial ROS levels”.

Question: With FC(F)c1nc2ccccc2n1-c1nc(N2CCOCC2)nc(N2CCOCC2)n1 [ZSTK474, reference compound] as the compound, how does the “phosphorylation of AKT” value [2] read?
Answer: The value was “suppressed”.

Question: What does the source list for CN(C)CC(=O)N1CCC(c2ccc3ncc(C(=O)Nc4ccccc4Cl)n3c2)CC1 [compound 119, N-(2-Chlorophenyl)-6-(1-(dimethylglycyl)piperidin-4-yl)imidazo[1,2-a]pyridine-3-carboxamide]?
Answer: remaining activity at 0.01 µM (EphB4): 87.2%; remaining activity at 0.03 µM (EphB4; 30 nM compound, read-out: EphB4 % act 30 nM): 75.9%; remaining activity at 0.1 µM (EphB4): 76.3%; remaining activity at 0.01 µM (EphB3): 116%; remaining activity at 0.03 µM (EphB3; 30 nM compound, read-out: EphB3 % act 30 nM): 90.3%; remaining activity at 0.1 µM (EphB3): 78.3%; remaining activity at 0.01 µM (EphA2; 10 nM compound, read-out: EphA2 % act 10 nM): 71.3%; remaining activity at 0.03 µM (EphA2; 30 nM compound, read-out: EphA2 % act 30 nM): 61.2%; remaining activity at 0.1 µM (EphA2; 100 nM compound, read-out: EphA2 % act 100 nM): 45.1%; remaining activity at 0.01 µM (EphA4; 10 nM compound, read-out: EphA4 % act 10 nM): 80.3%; remaining activity at 0.03 µM (EphA4; 30 nM compound, read-out: EphA4 % act 30 nM): 74.2%; remaining activity at 0.1 µM (EphA4; 100 nM compound, read-out: EphA4 % act 100 nM): 72.8%

From patent US20240189289A1, “INHIBITORS OF EPHB3 SIGNALING” (The Brigham and Women`s Hospital, Inc., priority 2021, published 2024)
